Publication PMC3528340 (Journal of the American Chemical Society, 2012)

Tests used:
[1] = molecular target: T1, EcLTA (E. coli L-Thr aldolase, EC 4.1.24) (Escherichia coli, UniProt P75823); assay: aldehyde dehydrogenase-coupled retro-aldol assay, A340; type: biochemical; conditions: L-Thr only, no aldehyde acceptor
T1 sequence (P75823 1-333): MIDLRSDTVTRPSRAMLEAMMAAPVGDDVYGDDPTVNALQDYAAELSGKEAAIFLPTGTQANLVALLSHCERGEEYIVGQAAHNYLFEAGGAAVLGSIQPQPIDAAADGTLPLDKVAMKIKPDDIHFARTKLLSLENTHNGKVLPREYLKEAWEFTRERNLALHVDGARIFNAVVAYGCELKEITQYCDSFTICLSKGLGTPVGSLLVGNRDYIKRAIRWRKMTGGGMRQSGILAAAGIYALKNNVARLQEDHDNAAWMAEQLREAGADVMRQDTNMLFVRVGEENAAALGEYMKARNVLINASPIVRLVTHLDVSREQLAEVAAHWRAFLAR

EcGlyA (E. coli SHMT) = molecular target: T2, EcGlyA (E. coli SHMT) (Escherichia coli, UniProt P0A825); assay: as above; type: biochemical; conditions: L-Thr only, no aldehyde acceptor
T2 sequence (P0A825 1-417): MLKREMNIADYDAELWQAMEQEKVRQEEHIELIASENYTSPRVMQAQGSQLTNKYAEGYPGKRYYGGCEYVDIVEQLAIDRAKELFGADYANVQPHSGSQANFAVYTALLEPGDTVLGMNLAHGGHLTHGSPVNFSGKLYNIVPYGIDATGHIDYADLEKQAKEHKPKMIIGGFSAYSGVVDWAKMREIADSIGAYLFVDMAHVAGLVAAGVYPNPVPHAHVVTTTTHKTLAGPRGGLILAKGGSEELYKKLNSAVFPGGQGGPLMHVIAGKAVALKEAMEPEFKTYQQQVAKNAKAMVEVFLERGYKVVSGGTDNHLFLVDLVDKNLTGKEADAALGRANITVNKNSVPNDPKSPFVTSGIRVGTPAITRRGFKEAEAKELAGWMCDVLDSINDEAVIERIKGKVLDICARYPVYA

`C[C@@H](O)[C@H](N)C(=O)O` [L-Thr] was tested, and the specific activity [1] was “EcLTA, and EcGlyA were shown to catalyze a retro-aldol-type reaction in the presence of only L-Thr” and the specific activity (EcGlyA (E. coli SHMT)) was “EcLTA, and EcGlyA were shown to catalyze a retro-aldol-type reaction in the presence of only L-Thr”.
